# Reference: ChEMBL document CHEMBL5608195, “Identification and biological evaluation of fused tetrahydroisoquinoline derivatives as Wnt/β-catenin signaling inhibitors to suppress colorectal cancer” (Eur J Med Chem, 2024)
# pIC50, pKd: −log10 of the molar value. Active and inactive are the calls of the source. The rule behind the calls is not given here.
# Assays:
# [1] = test system: HCT-116; experiment: Inhibition of Wnt/beta-catenin signaling pathway in human HCT-116 cells assessed as induction of beta-catenin degradation pretreated with cycloheximide followed by compound addition by Western blot analysis; type: cell-based; details: time <= 6.0 hrs, TDE = time-dependent effect
# [2] = biological target: T1, Heat shock protein HSP90 (Homo sapiens) (UniProt P07900+P08238); experiment: Induction of thermal stabilization of Hsp90 in human HCT-116 cells at 37 to 82 degree C at 100 uM incubated for 1 hr by thermal shift assay; type: cell-based
# [3] = Toxicity in male BALB/c mouse xenografted with human HCT-116 cells assessed as effect on serum AST level at 10 to 40 mg/kg, ip by biochemical analysis; type: organism-based; details: in vivo, dose 10-40 mg/kg
# [4] = test system: RKO; experiment: Antiproliferative activity against human RKO cells assessed as inhibition of DNA proliferation at 10 uM incubated for 22 hrs by fluorescence based microscopic analysis; type: functional, cell-based
# [5] = test system: HCT-116; experiment: Induction of cell cycle arrest in human HCT-116 cells assessed as downregulation of Cyclin A2 protein level by Western blot analysis; type: functional, cell-based
# [6] = test system: HCT-116; experiment: Induction of cell cycle arrest in human HCT-116 cells assessed as accumulation of cells at S phase incubated for 24 hrs by PI staining based flow cytometry; type: functional; details: dose 6-10 µM
# [7] = test system: HCT-116; experiment: Inhibition of Wnt/beta-catenin signaling pathway in human HCT-116 cells assessed as induction of beta-catenin degradation in presence of MG132 by Western blot analysis; type: cell-based
# [8] = test system: RKO; experiment: Inhibition of Wnt/beta-catenin signaling pathway in human RKO cells assessed as induction of beta-catenin degradation pretreated with cycloheximide followed by compound addition by Western blot analysis; type: cell-based; details: time <= 6.0 hrs, TDE = time-dependent effect
# [9] = test system: HCT-116; experiment: Antitumor activity against human HCT-116 cells xenografted in male BALB/c mouse assessed as tumor growth inhibition at 40 mg/kg, ip measured every two days for upto 20 days relative to control; type: functional; details: HCT-116, 480 h, time <= 20 day, read-out: TGI
# [10] = Binding affinity to recombinant N-terminal GST-tagged human HSP90 (1 to 224 residues) extracted from Escherichia coli BL21 (DE3) cells assessed as dissociation constant by surface plasmon resonance assay
# [11] = test system: HCT-116; experiment: Induction of cell cycle arrest in human HCT-116 cells assessed as downregulation of c-Myc protein level by Western blot analysis; type: functional, cell-based
# [12] = test system: RKO; experiment: Inhibition of Wnt/beta-catenin signaling pathway in human RKO cells assessed as downregulation of beta-catenin expression incubated for 24 hrs by qRT-PCR analysis; type: cell-based; details: dose <= 10.0 µM
# [13] = test system: RKO; experiment: Induction of cell cycle arrest in human RKO cells assessed as upregulation of P21 protein level by Western blot analysis; type: functional, cell-based
# [14] = Toxicity in male BALB/c mouse xenografted with human HCT-116 cells assessed as histological change in lung at 10 to 40 mg/kg, ip by H and E staining based optical microscopic analysis; type: organism-based; details: in vivo, dose 10-40 mg/kg
# [15] = Half life in male ICR (CD-1) mouse at 10 mg/kg, ip measured upto 24 hrs by LC-MS/MS analysis; type: ADME, organism-based; details: in vivo
# [16] = Toxicity in male BALB/c mouse xenografted with human HCT-116 cells assessed as histological change in spleen at 10 to 40 mg/kg, ip by H and E staining based optical microscopic analysis; type: organism-based; details: in vivo, dose 10-40 mg/kg
# [17] = test system: HCT-116; experiment: Induction of cell cycle arrest in human HCT-116 cells assessed as downregulation of Cyclin D1 protein level by Western blot analysis; type: functional, cell-based
# [18] = Tmax in male ICR (CD-1) mouse at 20 mg/kg, po measured upto 24 hrs by LC-MS/MS analysis; type: ADME, organism-based; details: in vivo
# [19] = test system: HCT-116; experiment: Antitumor activity against human HCT-116 cells xenografted in male BALB/c mouse assessed as tumor growth inhibition at 10 mg/kg, ip measured every two days for upto 20 days relative to control; type: functional; details: HCT-116, 480 h, time <= 20 day, read-out: TGI
# [20] = test system: HCT-116; experiment: Antitumor activity against human HCT-116 cells xenografted in male BALB/c mouse assessed as decrease in Ki-67 protein level at 10 to 40 mg/kg, ip by Immunohistochemical staining based analysis; type: functional, organism-based; details: dose 10-40 mg/kg
# [21] = Cmax in male ICR (CD-1) mouse at 10 mg/kg, ip measured upto 24 hrs by LC-MS/MS analysis; type: ADME, organism-based; details: in vivo
# [22] = Toxicity in male BALB/c mouse xenografted with human HCT-116 cells assessed as histological change in heart at 10 to 40 mg/kg, ip by H and E staining based optical microscopic analysis; type: organism-based; details: in vivo, dose 10-40 mg/kg
# [23] = AUC (0 to infinity) in male ICR (CD-1) mouse at 5 mg/kg, iv measured upto 24 hrs by LC-MS/MS analysis; type: ADME, organism-based; details: in vivo
# [24] = test system: RKO; experiment: Inhibition of Hsp90/beta-catenin in human RKO cells at 6 to 10 uM incubated for 24 hrs by co-immunoprecipitation analysis; type: cell-based; details: dose 6-10 µM
# [25] = biological target: T1, Heat shock protein HSP90 (Homo sapiens); experiment: Induction of thermal stabilization of Hsp90 in human RKO cells at 37 to 82 degree C at 100 uM incubated for 1 hr by thermal shift assay; type: cell-based
# [26] = Half life in male ICR (CD-1) mouse at 5 mg/kg, iv measured upto 24 hrs by LC-MS/MS analysis; type: ADME, organism-based; details: in vivo
# [27] = test system: RKO; experiment: Antiproliferative activity against human RKO cells incubated for 24 hrs by MTT assay; type: functional, cell-based
# [28] = test system: HCT-116; experiment: Induction of cell cycle arrest in human HCT-116 cells assessed as downregulation of Cyclin B1 protein level by Western blot analysis; type: functional, cell-based
# [29] = test system: HCT-116; experiment: Antiproliferative activity against human HCT-116 cells incubated for 24 hrs by MTT assay; type: functional, cell-based; details: HCT-116, 24 h
compound,measurement,setting,value
CC12c3ccc(Cl)cc3CCN1CCc1c2[nH]c2ccc(Cl)cc12 (centres undefined),inhibition,[1],Tde
same,Activity,[2],Active
same,Activity,[3],Non-Toxic
same,Activity,[4],Active
same,Activity,[5],Dose-Dependent Effect
same,Activity,[6],Dose-Dependent Effect
same,inhibition,[7],inactive
same,inhibition,[8],Tde
same,inhibition in vivo at 40 mg/kg,[9],71.6%
same,pKd,[10],4.91
same,Activity,[11],Dose-Dependent Effect
same,inhibition,[12],Dose-Dependent Effect
same,Activity,[13],Dose-Dependent Effect
same,Activity,[14],Non-Toxic
same,half-life,[15],3.55 h
same,Activity,[16],Non-Toxic
same,Activity,[17],Dose-Dependent Effect
same,Tmax,[18],0.33 h
same,inhibition in vivo at 10 mg/kg,[19],57.4%
same,Activity,[20],Active
same,Cmax,[21],1450 ng/mL
same,Activity,[22],Non-Toxic
same,AUC(0-inf),[23],1500 ng·h/mL
same,inhibition,[24],Dose-Dependent Effect
same,Activity,[25],Active
same,half-life,[26],1.42 h
same,pIC50,[27],5.10
same,Activity,[28],Dose-Dependent Effect
same,pIC50,[29],5.08
